Test results from patent US12116388B2, “Amylin receptor agonists” (Novo Nordisk A/S, priority 2022, dated 2024).
Starred links: 1 amine or outer side, 2 acyl side, 3 side chain; linkers in the order of their positions; H or OH if unused. Residues, ends and D or L forms follow the SMILES beside them. *: point of attachment. C20 diacid = O=C(O)CCCCCCCCCCCCCCCCCCC(=O)*; C18 diacid = O=C(O)CCCCCCCCCCCCCCCCC(=O)*; γGlu = O=C(O)[C@H](CCC(=O)[*:2])N[*:1]

Tests used:
[1] = molecular target: T1, human amylin receptor (hAMYR3) (Homo sapiens, UniProt O60896+P30988); test: Human amylin receptor (hAMYR3) in vitro potency assay, CRE-luciferase reporter in BHK cells; format: cell-based; conditions: BHK hAMYR3/CRE-Luc cells, 3 hours incubation, assay buffer with 1% ovalbumin
T1 construct: host or cells: BHK (Baby Hamster Kidney), Hollex-1 cell line further transfected with RAMP3
T1 sequence (O60896 24-148, one chain of several): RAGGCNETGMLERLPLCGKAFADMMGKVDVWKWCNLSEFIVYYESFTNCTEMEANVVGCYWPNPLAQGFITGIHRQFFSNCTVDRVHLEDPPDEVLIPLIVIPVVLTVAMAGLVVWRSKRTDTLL
Description: (§1) Activation of hAMYR3 leads to increased cellular concentrations of cAMP. Consequently, transcription is activated by promotors containing multiple copies of the CAMP response element (CRE). It is thus possible to measure hAMYR3 activity using a CRE-luciferase reporter gene introduced into Baby Hamster Kidney (BHK) cells co-expressing the hAMYR3.
A BHK cell line was stably transfected with the human calcitonin receptor (a) and a CRE-responsive luciferase (CRE-Luc) reporter gene according to methods known to the person skilled in the art (Hollex-1 cell line, obtained from Zymogenetics described in U.S. Pat. No. 5,622,839). The cell line was further transfected with human receptor modifying protein 3 (RAMP3) using standard methods. This turns the human calcitonin receptor into a human amylin-3(a) receptor.
(§2) Cells stocks were prepared by culturing of the stably transfected BHK hAMYR3/CRE-Luc cell line in growth medium consisting of DMEM (Gibco, 31966-021) supplemented with 10% FBS (Gibco, 16140-071), 1% Pen/Strep (Gibco, 15140-122), 0.5 mg/mL Geneticin (Gibco, 10131-027), 0.4 mg/mL Hygromycin (Invitrogen, 10687010) and 250 nM Methotrexate (Sigma, A6770). Cells at approximately 80-90% confluence were washed once with PBS (Gibco 14190-094) and loosened from the cell flasks with Versene (Gibco, 15040-033) or TrypLE™ (Gibco, 12605-010). After centrifugation, the cell pellet was dissolved and diluted to approximately 2.5×10E6 cells/mL in Recovery™ Cell Culture Freezing Medium (Gibco, 12648-010). Cells were aliquoted and stored at −180° C. until use.
(§3) The assay buffer consisted of DMEM without phenol red (Gibco, 11880-028) supplemented with 1× GlutaMAX (Gibco, 35050-038), 10 mM HEPES (Gibco, 15630-056) and 1% (w/v) ovalbumin (Sigma, A5503).
(§4) To perform the assay, BHK hAMYR3/CRE-Luc cells were thawed, washed once in PBS and seeded in 40 μL growth medium in a white 384-well culture plate (PerkinElmer, 6007688) at a cell density of 4.000 cells/well on the day before the experiment. The plate was incubated over night at 37° C. in 5% CO2. On the day of the assay, cells were washed once in assay buffer. Serial dilutions (7-fold dilutions, 7 concentrations Pr. compound and one well containing only assay buffer) of comparator compounds and amylin analogues were performed in assay buffer often starting from approximately 10 nM in 96-well plates and 30 μL of each concentration added to the 384-well assay plate with cells. The assay plate was incubated for 3 hours at 37° C. in 5% CO2 after which 30 μL SteadyLite Plus (PerkinElmer, 6066759) was added to each well. The assay plate was sealed, incubated at room temperature with gentle shaking for 5 minutes followed by 30 minutes incubation without shaking while protected from light. Luminescence was detected on a luminescence plate reader e.g. a Synergy 2 (BioTek).

[2] = molecular target: T2, human calcitonin receptor (hCTR) (Homo sapiens, UniProt P30988); test: Human calcitonin receptor (hCTR) in vitro potency assay, CRE-luciferase reporter in BHK cells; format: cell-based; conditions: BHK hCTR/CRE-Luc cells, 3 hours incubation, assay buffer with 1% ovalbumin; read-out: hCalcR potency, EC50
T2 construct: host or cells: BHK (Baby Hamster Kidney), Hollex-1 cell line
T2 sequence (P30988 25-474): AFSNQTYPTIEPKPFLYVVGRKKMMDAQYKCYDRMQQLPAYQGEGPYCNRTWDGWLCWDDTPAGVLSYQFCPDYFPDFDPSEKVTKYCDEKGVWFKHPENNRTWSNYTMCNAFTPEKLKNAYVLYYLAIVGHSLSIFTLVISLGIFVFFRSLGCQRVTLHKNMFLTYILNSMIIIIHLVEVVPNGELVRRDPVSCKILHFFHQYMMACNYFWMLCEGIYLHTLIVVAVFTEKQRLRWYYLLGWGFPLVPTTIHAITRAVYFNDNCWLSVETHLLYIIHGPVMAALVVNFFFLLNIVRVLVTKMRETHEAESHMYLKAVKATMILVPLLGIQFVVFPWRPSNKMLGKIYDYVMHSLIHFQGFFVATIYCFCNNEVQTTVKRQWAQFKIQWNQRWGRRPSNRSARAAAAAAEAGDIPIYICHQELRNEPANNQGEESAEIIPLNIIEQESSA
Description: as §1, with “hCTR” for “hAMYR3”, “CAMP.” for “cAMP.”, “hCTR.” for “hAMYR3.”
A BHK cell line was stably transfected with the human calcitonin receptor (a) and a CRE-responsive luciferase (CRE-Luc) reporter gene according to methods known to the person skilled in the art (Hollex-1 cell line, obtained from Zymogenetics described in U.S. Pat. No. 5,622,839).
as §2, with “hCTR/CRE-Luc” for “hAMYR3/CRE-Luc”, “10131-027)” for “10131-027), 0.4 mg/mL Hygromycin (Invitrogen, 10687010)”
as §3
as §4, with “hCTR/CRE-Luc” for “hAMYR3/CRE-Luc”

EC50 [1] [pM]	EC50 [2] [pM]	SMILES
1.68	1.81	CC[C@H](C)[C@H](NC(=O)[C@H](C)NC(=O)CNC(=O)[C@H](Cc1ccccc1)NC(=O)[C@@H]1CCCN1C(=O)[C@H](CC(=O)O)NC(=O)[C@H](CO)NC(=O)[C@H](CO)NC(=O)[C@H](Cc1c[nH]cn1)NC(=O)[C@H](Cc1c[nH]cn1)NC(=O)[C@H](CC(C)C)NC(=O)[C@H](Cc1ccccc1)NC(=O)[C@H](CCC(=O)O)NC(=O)[C@H](C)NC(=O)[C@H](CC(C)C)NC(=O)[C@H](CCCNC(=N)N)NC(=O)[C@H](CCC(N)=O)NC(=O)[C@@H](NC(=O)[C@H](CCC(N)=O)NC(=O)[C@H](C)NC(=O)[C@@H](NC(=O)[C@H](CO)NC(=O)[C@H](CC(C)C)NC(=O)[C@H](Cc1c[nH]cn1)NC(=O)CNC(=O)[C@H](C)NC(=O)CC[C@H](NC(=O)CCCCCCCCCCCCCCCCCCC(=O)O)C(=O)O)[C@@H](C)O)[C@@H](C)O)C(=O)N1CCC[C@H]1C(=O)N[C@@H](CO)C(=O)N[C@@H](CO)C(=O)N[C@H](C(=O)N[C@@H](CC(=O)O)C(=O)N[C@H](C(=O)NCC(=O)N1CCC[C@H]1C(=O)N[C@@H](CC(=O)O)C(=O)N[C@H](C(=O)N1CCC[C@H]1C(N)=O)[C@@H](C)O)C(C)C)[C@@H](C)O [Compound 7, N^1-[(4S)-4-carboxy-4-(19-carboxynonadecanoylamino)butanoyl]-[Ala1,Gly2,His3,Leu4,Ser5,Ala7,Gln8,Glu14,His17,Asp21,Pro22,Pro27,Asp31,Pro34,Asp35,Pro37]-human amylin] ({C20 diacid-γGlu}-AGHLSTAQTQRLAEFLHHSSDPFGAIPSSTDVGPDTP-NH2)
2.18	1.68	CC[C@H](C)[C@H](NC(=O)[C@H](C)NC(=O)CNC(=O)[C@H](Cc1ccccc1)NC(=O)[C@@H]1CCCN1C(=O)[C@H](CC(=O)O)NC(=O)[C@H](CO)NC(=O)[C@H](CO)NC(=O)[C@H](Cc1c[nH]cn1)NC(=O)[C@H](Cc1c[nH]cn1)NC(=O)[C@H](CC(C)C)NC(=O)[C@H](Cc1ccccc1)NC(=O)[C@H](CCC(=O)O)NC(=O)[C@H](C)NC(=O)[C@H](CC(C)C)NC(=O)[C@H](CCCNC(=N)N)NC(=O)[C@H](CCC(N)=O)NC(=O)[C@@H](NC(=O)[C@H](CCC(N)=O)NC(=O)[C@H](C)NC(=O)[C@@H](NC(=O)[C@H](CO)NC(=O)[C@H](CC(C)C)NC(=O)[C@H](Cc1c[nH]cn1)NC(=O)[C@H](CO)NC(=O)[C@H](C)NC(=O)CC[C@H](NC(=O)CC[C@H](NC(=O)CCCCCCCCCCCCCCCCC(=O)O)C(=O)O)C(=O)O)[C@@H](C)O)[C@@H](C)O)C(=O)N1CCC[C@H]1C(=O)N[C@@H](CO)C(=O)N[C@@H](CO)C(=O)N[C@H](C(=O)N[C@@H](CC(=O)O)C(=O)N[C@H](C(=O)NCC(=O)N1CCC[C@H]1C(=O)N[C@@H](CC(=O)O)C(=O)N[C@H](C(=O)N1CCC[C@H]1C(N)=O)[C@@H](C)O)C(C)C)[C@@H](C)O [Compound 9, N^1-[(4S)-4-carboxy-4-[[(4S)-4-carboxy-4-(17-carboxyheptadecanoylamino)butanoyl]amino]butanoyl]-[Ala1,Ser2,His3,Leu4,Ser5,Ala7,Gln8,Glu14,His17,Asp21,Pro22,Pro27,Asp31,Pro34,Asp35,Pro37]-human amylin] ({C18 diacid-γGlu-γGlu}-ASHLSTAQTQRLAEFLHHSSDPFGAIPSSTDVGPDTP-NH2)
2.43	1.58	CC[C@H](C)[C@H](NC(=O)[C@H](C)NC(=O)CNC(=O)[C@H](Cc1ccccc1)NC(=O)[C@@H]1CCCN1C(=O)[C@H](CC(=O)O)NC(=O)[C@H](CO)NC(=O)[C@H](CO)NC(=O)[C@H](Cc1c[nH]cn1)NC(=O)[C@H](Cc1c[nH]cn1)NC(=O)[C@H](CC(C)C)NC(=O)[C@H](Cc1ccccc1)NC(=O)[C@H](CCC(=O)O)NC(=O)[C@H](C)NC(=O)[C@H](CC(C)C)NC(=O)[C@H](CCCNC(=N)N)NC(=O)[C@H](CCC(N)=O)NC(=O)[C@@H](NC(=O)[C@H](CCC(N)=O)NC(=O)[C@H](C)NC(=O)[C@@H](NC(=O)[C@H](CO)NC(=O)[C@H](CC(C)C)NC(=O)[C@H](CCC(=O)O)NC(=O)CNC(=O)[C@H](C)NC(=O)CC[C@H](NC(=O)CCCCCCCCCCCCCCCCC(=O)O)C(=O)O)[C@@H](C)O)[C@@H](C)O)C(=O)N1CCC[C@H]1C(=O)N[C@@H](CO)C(=O)N[C@@H](CO)C(=O)N[C@H](C(=O)N[C@@H](CC(=O)O)C(=O)N[C@H](C(=O)NCC(=O)N1CCC[C@H]1C(=O)N[C@@H](CC(=O)O)C(=O)N[C@H](C(=O)N1CCC[C@H]1C(N)=O)[C@@H](C)O)C(C)C)[C@@H](C)O [Compound 11, N^1-[(4S)-4-carboxy-4-(17-carboxyheptadecanoylamino)butanoyl]-[Ala1,Gly2,Glu3,Leu4,Ser5,Ala7,Gln8,Glu14,His17,Asp21,Pro22,Pro27,Asp31,Pro34,Asp35,Pro37]-human amylin] ({C18 diacid-γGlu}-AGELSTAQTQRLAEFLHHSSDPFGAIPSSTDVGPDTP-NH2)
